Reference: ChEMBL document CHEMBL3045652, “Biorational glycol diesters as dietary toxins versus bioefficacy of sucrose octanoate against lepidopteran larvae” (Ind Crops Prod, 2012)
Values after ≈ are worked out from the molar mass of the structure shown. Active and inactive are the calls of the source. No cut-off for these calls is given here.

Experiments:
Spodoptera litura [1] = assay: Insecticidal activity against second-instar larval stage of Spodoptera litura fed with artificial diet containing compound assessed as growth inhibition after 7 days; format: functional, organism-based; conditions: for EC50: 168 h
Helicoverpa armigera [2] = assay: Insecticidal activity against second-instar larval stage of Helicoverpa armigera fed with artificial diet containing compound assessed as mortality after 7 days; format: functional; conditions: 168 h
Helicoverpa armigera [3] = assay: Insecticidal activity against second-instar larval stage of Helicoverpa armigera fed with artificial diet containing compound assessed as growth inhibition after 7 days; format: functional, organism-based; conditions: for EC50: 168 h
Helicoverpa armigera [4] = assay: Insecticidal activity against second-instar larval stage of Helicoverpa armigera assessed as increase in mortality applied as spray at 1 to 10 mg/ml after 72 hr; format: functional, organism-based
Spodoptera litura [5] = assay: Insecticidal activity against second-instar larval stage of Spodoptera litura fed with artificial diet containing compound assessed as mortality after 7 days; format: functional; conditions: 168 h
Helicoverpa armigera [6] = assay: Antifeedant activity against third-instar larval stage of Helicoverpa armigera fed with artificial diet containing compound assessed as relative consumption rate at 6.02 mg/ml after 3 days (reference value: 1.88 +/- 0.14 mg/mg/day); format: functional
Spodoptera litura [7] = assay: Antifeedant activity against third-instar larval stage of Spodoptera litura fed with artificial diet containing compound assessed as relative consumption rate at 3.72 mg/ml after 3 days (reference value: 2.13 +/- 0.18 mg/mg/day); format: functional
Spodoptera litura [8] = assay: Insecticidal activity against second-instar larval stage of Spodoptera litura assessed as increase in mortality applied as spray at 1 to 10 mg/ml after 72 hr; format: functional, organism-based
Spodoptera litura [9] = assay: Antifeedant activity against third-instar larval stage of Spodoptera litura fed with artificial diet containing compound assessed as efficiency index of ingested food at 3.72 mg/ml after 3 days (reference value: 64.5%); format: functional
Helicoverpa armigera [10] = assay: Antifeedant activity against third-instar larval stage of Helicoverpa armigera fed with artificial diet containing compound assessed as relative growth rate at 6.02 mg/ml after 3 days (reference value: 0.97 +/- 0.13 mg/mg/day); format: functional
Helicoverpa armigera [11] = assay: Antifeedant activity against third-instar larval stage of Helicoverpa armigera fed with artificial diet containing compound assessed as efficiency index of ingested food at 6.02 mg/ml after 3 days (reference value: 52%); format: functional
Spodoptera litura [12] = assay: Antifeedant activity against third-instar larval stage of Spodoptera litura fed with artificial diet containing compound assessed as relative growth rate at 3.72 mg/ml after 3 days (reference value: 1.37 +/- 0.12 mg/mg/day); format: functional
Helicoverpa armigera [13] = assay: Insecticidal activity against second-instar larval stage of Helicoverpa armigera assessed as mortality applied as spray after 72 hr; format: functional
Spodoptera litura [14] = assay: Insecticidal activity against second-instar larval stage of Spodoptera litura assessed as mortality applied as spray after 72 hr; format: functional
Helicoverpa armigera [15] = assay: Antifeedant activity against third-instar larval stage of Helicoverpa armigera fed with artificial diet containing compound assessed as relative consumption rate at 3.94 mg/ml after 3 days (reference value: 1.88 +/- 0.14 mg/mg/day); format: functional
Helicoverpa armigera [16] = assay: Antifeedant activity against third-instar larval stage of Helicoverpa armigera fed with artificial diet containing compound assessed as relative growth rate at 3.94 mg/ml after 3 days (reference value: 0.97 +/- 0.13 mg/mg/day); format: functional
Spodoptera litura [17] = assay: Antifeedant activity against third-instar larval stage of Spodoptera litura fed with artificial diet containing compound assessed as relative consumption rate at 3.98 mg/ml after 3 days (reference value: 2.13 +/- 0.18 mg/mg/day); format: functional
Spodoptera litura [18] = assay: Antifeedant activity against third-instar larval stage of Spodoptera litura fed with artificial diet containing compound assessed as relative growth rate at 3.98 mg/ml after 3 days (reference value: 1.37 +/- 0.12 mg/mg/day); format: functional
Spodoptera litura [19] = assay: Antifeedant activity against third-instar larval stage of Spodoptera litura fed with artificial diet containing compound assessed as efficiency index of ingested food at 3.98 mg/ml after 3 days (reference value: 64.5%); format: functional
Helicoverpa armigera [20] = assay: Antifeedant activity against third-instar larval stage of Helicoverpa armigera fed with artificial diet containing compound assessed as efficiency index of ingested food at 3.94 mg/ml after 3 days (reference value: 52%); format: functional
Helicoverpa armigera [21] = assay: Antifeedant activity against third-instar larval stage of Helicoverpa armigera fed with artificial diet containing compound assessed as relative growth rate at 5.16 mg/ml after 3 days (reference value: 0.97 +/- 0.13 mg/mg/day); format: functional
Spodoptera litura [22] = assay: Antifeedant activity against third-instar larval stage of Spodoptera litura fed with artificial diet containing compound assessed as efficiency index of ingested food at 3.34 mg/ml after 3 days (reference value: 64.5%); format: functional
Spodoptera litura [23] = assay: Antifeedant activity against third-instar larval stage of Spodoptera litura fed with artificial diet containing compound assessed as relative growth rate at 3.34 mg/ml after 3 days (reference value: 1.37 +/- 0.12 mg/mg/day); format: functional
Helicoverpa armigera [24] = assay: Antifeedant activity against third-instar larval stage of Helicoverpa armigera fed with artificial diet containing compound assessed as efficiency index of ingested food at 5.16 mg/ml after 3 days (reference value: 52%); format: functional
Helicoverpa armigera [25] = assay: Antifeedant activity against third-instar larval stage of Helicoverpa armigera fed with artificial diet containing compound assessed as relative consumption rate at 5.16 mg/ml after 3 days (reference value: 1.88 +/- 0.14 mg/mg/day); format: functional
Spodoptera litura [26] = assay: Antifeedant activity against third-instar larval stage of Spodoptera litura fed with artificial diet containing compound assessed as relative consumption rate at 3.34 mg/ml after 3 days (reference value: 2.13 +/- 0.18 mg/mg/day); format: functional

Row | SMILES | growth inhibition (GI) (Spodoptera litura [1]) | EC50 (Spodoptera litura [1]) [µg/mL] | LC50 (Helicoverpa armigera [2]) [µg/mL] | growth inhibition (GI) (Helicoverpa armigera [3]) | EC50 (Helicoverpa armigera [3]) [µg/mL] | Activity (Helicoverpa armigera [4]) | LC50 (Spodoptera litura [5]) [µg/mL] | Activity (Spodoptera litura [8]) | other results
1 | CCCC(=O)OCCOC(=O)CCC [ETHYLENE GLYCOL DIBUTANOATE] | Dose-dependent effect | 1850 (≈ 9.15 mM) | 2000 (≈ 9.89 mM) | Dose-dependent effect | 2820 (≈ 13.9 mM) | Active | 2000 (≈ 9.89 mM) | Active | Activity (Helicoverpa armigera [6]): 1.7 mg/mg/day; Activity (Spodoptera litura [7]): 2.04 mg/mg/day; ECI (Spodoptera litura [9]): 2%; Activity (Helicoverpa armigera [10]): 0.55 mg/mg/day; ECI (Helicoverpa armigera [11]): 32.4%; Activity (Spodoptera litura [12]): 0.74 mg/mg/day
2 | CCCCCCCC(=O)OCCOC(=O)CCCCCCC [ETHYLENE GLYCOL DIOCTANOATE] | Dose-dependent effect | 1980 (≈ 6.3 mM) | 3140 (≈ 9.99 mM) | Dose-dependent effect | 2080 (≈ 6.61 mM) |  | 2000 (≈ 6.36 mM) |  | LC50 (Helicoverpa armigera [13]): 6500 µg/mL (≈ 20.7 mM); LC50 (Spodoptera litura [14]): 6100 µg/mL (≈ 19.4 mM); Activity (Helicoverpa armigera [15]): 1.9 mg/mg/day; Activity (Helicoverpa armigera [16]): 0.69 mg/mg/day; Activity (Spodoptera litura [17]): 2 mg/mg/day; Activity (Spodoptera litura [18]): 0.72 mg/mg/day; ECI (Spodoptera litura [19]): 8%; ECI (Helicoverpa armigera [20]): 36.5%
3 | CCCCC(=O)OCCOC(=O)CCCC [ETHYLENE GLYCOL DIPENTANOATE] | Dose-dependent effect | 1840 (≈ 7.99 mM) | 2000 (≈ 8.68 mM) | Dose-dependent effect | 2120 (≈ 9.21 mM) | Active | 2340 (≈ 10.2 mM) | Active | Activity (Helicoverpa armigera [21]): 0.58 mg/mg/day; ECI (Spodoptera litura [22]): 4%; Activity (Spodoptera litura [23]): 0.64 mg/mg/day; ECI (Helicoverpa armigera [24]): 31.9%; Activity (Helicoverpa armigera [25]): 1.82 mg/mg/day; Activity (Spodoptera litura [26]): 2.09 mg/mg/day
